We go through 28 compounds from US20240299385A1 (ReWind Therapeutics NV, priority 2021, published 2024).

SMILES strings stand for the structures.

T1 sequence (Q13304 whole entry): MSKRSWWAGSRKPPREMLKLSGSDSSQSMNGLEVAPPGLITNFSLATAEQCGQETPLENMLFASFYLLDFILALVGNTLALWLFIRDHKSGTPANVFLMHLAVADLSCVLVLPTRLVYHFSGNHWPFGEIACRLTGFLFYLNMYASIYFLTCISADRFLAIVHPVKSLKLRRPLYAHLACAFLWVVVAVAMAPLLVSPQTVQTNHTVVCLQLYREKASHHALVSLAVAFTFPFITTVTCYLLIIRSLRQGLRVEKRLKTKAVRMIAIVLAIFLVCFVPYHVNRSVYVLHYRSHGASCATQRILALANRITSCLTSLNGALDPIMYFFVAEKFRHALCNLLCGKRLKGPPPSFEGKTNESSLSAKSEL

This test concerns the target T1, human GPR17 receptor (Homo sapiens, UniProt Q13304).
T1 construct: host or cells: HEK-293
In words: Calcium mobilization functional assay (Fluo-8, FLIPR TETRA) in HEK-293 hGPR17 (Gα-q assay). In kind it is cell-based. Conditions: antagonism of MDL29,951 (~EC80) induced Ca2+ signal; cell line (HEK-293 hGPR17 or HEK-293 Suchi5 hGPR17) not given. The method in brief:
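Fluo-8-loaded HEK-293 hGPR17 cells (60 min dye loading, room temperature) were preincubated with compound for twenty minutes, then challenged with agonist MDL29,951 at ~EC80, 500 nM. Intracellular calcium release via Gα-q was recorded as FLIPR fluorescence for a further 2 minutes; compounds tested in duplicate.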
Background: Calcium assays in cells follow changes in intracellular calcium, usually with a dye or a luminescent sensor.
The term IC50 denotes the concentration that inhibits the measured activity by half. With `N#CCOc1cc(F)c(NS(=O)(=O)c2c[nH]c(-c3ccccc3)c2F)cc1F` [Cpd 632, N-[4-(cyanomethoxy)-2,5-difluorophenyl]-4-fluoro-5-phenyl-1H-pyrrole-3-sulfonamide], the IC50 is less than 500 nM. The result for `COc1csc(-c2cc(S(=O)(=O)Nc3cc(F)c(OC(F)F)cc3F)c[nH]2)n1` [Cpd 633, N-[4-(difluoromethoxy)-2,5-difluorophenyl]-5-(4-methoxy-1,3-thiazol-2-yl)-1H-pyrrole-3-sulfonamide] reads less than 500 nM; that for `Cc1csc(-c2cc(S(=O)(=O)Nc3cc(F)c(OC(F)F)cc3F)c[nH]2)n1` [Cpd 634, N-[4-(difluoromethoxy)-2,5-difluorophenyl]-5-(4-methyl-1,3-thiazol-2-yl)-1H-pyrrole-3-sulfonamide], less than 500 nM. Regarding `O=S(=O)(Nc1cc(F)c(OC(F)F)cc1F)c1c[nH]c(-c2ccsn2)c1` [Cpd 635, N-[4-(difluoromethoxy)-2,5-difluorophenyl]-5-(1,2-thiazol-3-yl)-1H-pyrrole-3-sulfonamide], the IC50 is less than 500 nM. The same measure for `O=S(=O)(Nc1cc(F)c(OC(F)F)cc1F)c1c[nH]c(-c2ncco2)c1` [Cpd 636, N-[4-(difluoromethoxy)-2,5-difluorophenyl]-5-(1,3-oxazol-2-yl)-1H-pyrrole-3-sulfonamide]: less than 500 nM; for `O=S(=O)(Nc1cc(F)c(OC(F)F)cc1F)c1c[nH]c(-c2ncc(C(F)(F)F)s2)c1` [Cpd 637, N-[4-(difluoromethoxy)-2,5-difluorophenyl]-5-[5-(trifluoromethyl)-1,3-thiazol-2-yl]-1H-pyrrole-3-sulfonamide]: 500 to 5000 nM; for `O=S(=O)(Nc1cc(F)c(OC(F)F)cc1F)c1c[nH]c(-c2ccns2)c1` [Cpd 638, N-[4-(difluoromethoxy)-2,5-difluorophenyl]-5-(1,2-thiazol-5-yl)-1H-pyrrole-3-sulfonamide]: less than 500 nM. `O=S(=O)(Nc1cc(F)c(OC(F)F)cc1F)c1c[nH]c(-c2cnsc2)c1` [Cpd 639, N-[4-(difluoromethoxy)-2,5-difluorophenyl]-5-(1,2-thiazol-4-yl)-1H-pyrrole-3-sulfonamide]: the IC50 is less than 500 nM.

With `N#Cc1cc(F)c(NS(=O)(=O)c2c[nH]c(-c3ccoc3)c2)cc1F` [Cpd 640, N-(4-cyano-2,5-difluorophenyl)-5-(furan-3-yl)-1H-pyrrole-3-sulfonamide], the IC50 was less than 500 nM. For the compound `N#Cc1ccc(NS(=O)(=O)c2c[nH]c(-c3cncs3)c2)c(F)c1` [Cpd 641, N-(4-cyano-2-fluorophenyl)-5-(1,3-thiazol-5-yl)-1H-pyrrole-3-sulfonamide], the IC50 is less than 500 nM. Turning to `N#Cc1cc(F)c(NS(=O)(=O)c2c[nH]c(-c3cscn3)c2)cc1F` [Cpd 642, N-(4-cyano-2,5-difluorophenyl)-5-(1,3-thiazol-4-yl)-1H-pyrrole-3-sulfonamide], the IC50 is less than 500 nM.

In the case of `[2H]C([2H])(c1cccc(F)c1)c1c[nH]cc1S(=O)(=O)Nc1cc(F)c(C#N)cc1F` [Cpd 643, N-(4-cyano-2,5-difluorophenyl)-4-((3-fluorophenyl)methyl-d2)-1H-pyrrole-3-sulfonamide], the IC50 was less than 500 nM.

With `N#Cc1sc(NS(=O)(=O)c2c[nH]c(-c3ccccc3)c2)cc1F` [Cpd 644, N-(5-cyano-4-fluorothiophen-2-yl)-5-phenyl-1H-pyrrole-3-sulfonamide], the IC50 lay within 5000 to 50000 nM.

Consider `N#Cc1ccc(F)c(-c2cc(S(=O)(=O)Nc3cc(F)c(C#N)cc3F)c[nH]2)c1` [Cpd 645, N-(4-cyano-2,5-difluorophenyl)-5-(5-cyano-2-fluorophenyl)-1H-pyrrole-3-sulfonamide], for which the IC50 was less than 500 nM. In the case of `N#Cc1cc(F)c(NS(=O)(=O)c2c[nH]c(-c3ccsn3)c2)cc1F` [Cpd 646, N-(4-cyano-2,5-difluorophenyl)-5-(1,2-thiazol-3-yl)-1H-pyrrole-3-sulfonamide], the half-inhibitory concentration (IC50) was less than 500 nM. The result for `N#Cc1cc(F)c(NS(=O)(=O)c2c[nH]c(-c3cncs3)c2)cc1F` [Cpd 647, N-(4-cyano-2,5-difluorophenyl)-5-(1,3-thiazol-5-yl)-1H-pyrrole-3-sulfonamide] reads less than 500 nM; that for `N#Cc1cc(F)c(NS(=O)(=O)c2c[nH]c(-c3ncc(Cl)s3)c2)cc1F` [Cpd 648, 5-(5-chloro-1,3-thiazol-2-yl)-N-(4-cyano-2,5-difluorophenyl)-1H-pyrrole-3-sulfonamide], less than 500 nM; that for `Cc1csc(-c2cc(S(=O)(=O)Nc3cc(F)c(C#N)cc3F)c[nH]2)n1` [Cpd 649, N-(4-cyano-2,5-difluorophenyl)-5-(4-methyl-1,3-thiazol-2-yl)-1H-pyrrole-3-sulfonamide], less than 500 nM. Turning to `N#Cc1ccc(F)c(-c2cc(S(=O)(=O)Nc3cc(F)c(OC(F)F)cc3F)c[nH]2)c1` [Cpd 650, 5-(5-cyano-2-fluorophenyl)-N-[4-(difluoromethoxy)-2,5-difluorophenyl]-1H-pyrrole-3-sulfonamide], the IC50 is less than 500 nM.

With `N#Cc1cc(F)c(NS(=O)(=O)c2c[nH]c(-c3coc4ccccc34)c2)cc1F` [Cpd 651, 5-(1-benzofuran-3-yl)-N-(4-cyano-2,5-difluorophenyl)-1H-pyrrole-3-sulfonamide], the IC50 was less than 500 nM.

Take `COc1c(F)cccc1-c1cc(S(=O)(=O)Nc2cc(F)c(C#N)cc2F)c[nH]1` [Cpd 652, N-(4-cyano-2,5-difluorophenyl)-5-(3-fluoro-2-methoxyphenyl)-1H-pyrrole-3-sulfonamide]: the IC50 is less than 500 nM. The result for `Cc1occc1-c1cc(S(=O)(=O)Nc2cc(F)c(C(F)(F)F)cc2F)c[nH]1` [Cpd 653, N-[2,5-difluoro-4-(trifluoromethyl)phenyl]-5-(2-methylfuran-3-yl)-1H-pyrrole-3-sulfonamide] reads less than 500 nM; that for `N#Cc1cc(F)c(NS(=O)(=O)c2c[nH]c(-c3cccc(F)c3)c2)cc1F` [Cpd 654, N-(4-cyano-2,5-difluorophenyl)-5-(3-fluorophenyl)-1H-pyrrole-3-sulfonamide], less than 500 nM; that for `O=S(=O)(Nc1nc(F)c(OCCF)cc1F)c1c[nH]c(-c2cc(Cl)ccc2F)c1` [Cpd 655, 5-(5-chloro-2-fluorophenyl)-N-[3,6-difluoro-5-(2-fluoroethoxy)pyridin-2-yl]-1H-pyrrole-3-sulfonamide], less than 500 nM. With `N#Cc1cc(F)c(NS(=O)(=O)c2c[nH]c(-c3ccns3)c2)cc1F` [Cpd 656, N-(4-cyano-2,5-difluorophenyl)-5-(1,2-thiazol-5-yl)-1H-pyrrole-3-sulfonamide], the IC50 lay in the range of 500 to 5000 nM. On to `N#Cc1cc(F)c(NS(=O)(=O)c2c[nH]c(-c3cnsc3)c2)cc1F` [Cpd 657, N-(4-cyano-2,5-difluorophenyl)-5-(1,2-thiazol-4-yl)-1H-pyrrole-3-sulfonamide], for which the IC50 is 500 to 5000 nM.

Consider `N#Cc1cc(F)c(NS(=O)(=O)c2c[nH]c(-c3ncco3)c2)cc1F` [Cpd 658, N-(4-cyano-2,5-difluorophenyl)-5-(1,3-oxazol-2-yl)-1H-pyrrole-3-sulfonamide], for which the IC50 lay in the range of 500 to 5000 nM. The same measure for `Cc1csc(-c2cc(S(=O)(=O)Nc3cc(F)c(OC(F)F)cc3F)c[nH]2)c1` [Cpd 659, N-[4-(difluoromethoxy)-2,5-difluorophenyl]-5-(4-methylthiophen-2-yl)-1H-pyrrole-3-sulfonamide]: less than 500 nM.
